Measured values from PMC6838683, “Discovery of Human Signaling Systems: Pairing Peptides to G Protein-Coupled Receptors” (Cell, 2019).
Residues, ends and D or L forms follow the SMILES beside them.

What was measured:
[1] = biological target: T1, GPR1 (Homo sapiens, UniProt P46091); test: β-arrestin recruitment (Tango), validation; type: cell-based; parameters: host or cells: HTLA cells (HEK293-derived); details: receptor GPR1, mean, SEM and n (2-3); for EC50: read-out: b-arrestin recruitment assays (Tango) pEC50 (converted)
T1 sequence (P46091 1-355): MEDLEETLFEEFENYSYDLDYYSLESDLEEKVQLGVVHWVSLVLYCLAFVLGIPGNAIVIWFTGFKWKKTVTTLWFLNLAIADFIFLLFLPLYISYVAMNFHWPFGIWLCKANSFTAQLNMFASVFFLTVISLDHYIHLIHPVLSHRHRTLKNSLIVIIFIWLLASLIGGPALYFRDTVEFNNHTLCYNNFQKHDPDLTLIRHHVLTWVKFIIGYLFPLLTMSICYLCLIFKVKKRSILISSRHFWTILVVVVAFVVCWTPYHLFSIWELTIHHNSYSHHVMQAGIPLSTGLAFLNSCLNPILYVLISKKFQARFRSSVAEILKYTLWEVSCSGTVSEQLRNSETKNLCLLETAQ

[2] = biological target: T1, GPR1; test: β-arrestin recruitment (PathHunter); type: cell-based; details: receptor GPR1, mean, SEM and n (2-3); for EC50: read-out: b-arrestin recruitment assays (PathHunter) pEC50 (converted)
Method: PathHunter eXpress Assays (DiscoverX) were performed in 384-well format according to the manufacturer’s recommendations. GPR1 cells were incubated with peptides for 90 min and luminescence measured using an EnSpire 2300 Multimode plate reader (PerkinElmer).

[3] = system: 120 GPCR targets, including all available orphan receptors and 27 known class A peptide receptors; test: Peptide library screen, β-arrestin recruitment (Tango, fold change, 10 μM); type: cell-based, human; details: Tango; receptor(s) at which the known library peptide was active, among its known GPCR target(s); validated pairings
Method: The peptide library was additionally screened against 120 GPCR targets in parallel, including all available orphan receptors and 27 known class A peptide receptors using the Tango assay platform ([Kroeze et al., 2015]). Briefly, HTLA cells (a HEK293 cell line stably expressing a tTA-dependent luciferase reporter and a β-arrestin2-TEV fusion gene) were plated 10,000 cells/well in poly-L-lysine–coated clear-bottom white 384-well plates in DMEM supplemented with 10% FBS, 100 U/ml penicillin and 100 μg/ml streptomycin, 2 μg/ml puromycin and 100 μg/ml hygromycin B. 24 hr later, cells were transfected with Tango GPCR constructs using the calcium phosphate method ([Jordan et al., 1996]). The next day, culture medium was changed to DMEM + 1% dFBS and 10 μM peptides were added for overnight stimulation. Bright-Glo solution (Promega) was incubated for 15–20 min at room temperature, and luminescence was counted using a Trilux luminescence counter (Wallac).

| Molecule | EC50 [1] [nM] | EC50 [2] [nM] | b-arrestin recruitment assays (Tango) Emax (fold change) [1] [fold change] | b-arrestin recruitment assays (PathHunter) Emax (fold change) [2] [fold change] | Active at: (activity in b-arrestin recruitment assays) [3] |
| --- | --- | --- | --- | --- | --- |
| CC(C)C[C@H](NC(=O)[C@H](CCCNC(=N)N)NC(=O)[C@H](CC(=O)O)NC(=O)[C@H](CC(C)C)NC(=O)[C@@H]1CCCN1C(=O)[C@H](CO)NC(=O)CNC(=O)[C@H](Cc1ccccc1)NC(=O)CNC(=O)[C@H](CO)NC(=O)[C@H](Cc1ccccc1)NC(=O)[C@H](CO)NC(=O)[C@H](CCCNC(=N)N)NC(=O)[C@@H](N)CCCCN)C(=O)N[C@@H](CO)C(=O)N[C@@H](C)C(=O)NCC(=O)N[C@@H](CO)C(=O)N[C@H](C(=O)N[C@@H](CC(=O)O)C(=O)N[C@@H](Cc1c[nH]cn1)C(=O)N[C@@H](CCCCN)C(N)=O)C(C)C [141 resynthesized] (H-KRSFSGFGSPLDRLSAGSVDHK-NH2) | 5010 | 661 | – | – | – |
| CC[C@H](C)[C@H](NC(=O)[C@H](CCCNC(=N)N)NC(=O)[C@H](Cc1c[nH]cn1)NC(=O)[C@H](CO)NC(=O)[C@@H]1CCCN1C(=O)[C@H](CC(=O)O)NC(=O)[C@H](CC(C)C)NC(=O)[C@H](CC(N)=O)NC(=O)[C@H](CCC(N)=O)NC(=O)[C@H](CC(C)C)NC(=O)[C@H](CC(N)=O)NC(=O)[C@H](CCCCN)NC(=O)[C@@H](NC(=O)[C@@H](NC(=O)[C@H](CO)NC(=O)[C@H](CCSC)NC(=O)[C@H](CCCNC(=N)N)NC(=O)CNC(=O)[C@H](CO)NC(=O)[C@@H]1CCCN1C(=O)[C@H](C)NC(=O)[C@@H](N)CCCCN)[C@@H](C)CC)C(C)C)C(=O)N[C@@H](CO)C(=O)N[C@@H](CC(=O)O)C(=O)N[C@@H](CCCNC(=N)N)C(=O)N[C@@H](CC(=O)O)C(=O)N[C@@H](Cc1ccc(O)cc1)C(=O)N[C@@H](CCSC)C(=O)NCC(=O)N[C@@H](Cc1c[nH]c2ccccc12)C(=O)N[C@@H](CCSC)C(=O)N[C@@H](CC(=O)O)C(=O)N[C@@H](Cc1ccccc1)C(N)=O [194 original] (H-KAPSGRMSIVKNLQNLDPSHRISDRDYMGWMDF-NH2) | 5250 | 9.77 | – | – | – |
| CC[C@H](C)[C@H](NC(=O)[C@H](CCCNC(=N)N)NC(=O)[C@H](Cc1c[nH]cn1)NC(=O)[C@H](CO)NC(=O)[C@@H]1CCCN1C(=O)[C@H](CC(=O)O)NC(=O)[C@H](CC(C)C)NC(=O)[C@H](CC(N)=O)NC(=O)[C@H](CCC(N)=O)NC(=O)[C@H](CC(C)C)NC(=O)[C@H](CC(N)=O)NC(=O)[C@H](CCCCN)NC(=O)[C@@H](NC(=O)[C@@H](NC(=O)[C@H](CO)NC(=O)[C@H](CCSC)NC(=O)[C@H](CCCNC(=N)N)NC(=O)CNC(=O)[C@H](CO)NC(=O)[C@@H]1CCCN1C(=O)[C@H](C)NC(=O)[C@@H](N)CCCCN)[C@@H](C)CC)C(C)C)C(=O)N[C@@H](CO)C(=O)N[C@@H](CC(=O)O)C(=O)N[C@@H](CCCNC(=N)N)C(=O)N[C@@H](CC(=O)O)C(=O)N[C@@H](Cc1ccc(O)cc1)C(=O)N[C@@H](CCSC)C(=O)NCC(=O)N[C@@H](Cc1c[nH]c2ccccc12)C(=O)N[C@@H](CCSC)C(=O)N[C@@H](CC(=O)O)C(=O)N[C@@H](Cc1ccccc1)C(N)=O [194 resynthesized] (H-KAPSGRMSIVKNLQNLDPSHRISDRDYMGWMDF-NH2) | 6610 | 27.5 | – | – | – |
| CSCC[C@H](NC(=O)[C@@H](N)Cc1c[nH]c2ccccc12)C(=O)N[C@@H](CC(=O)O)C(=O)N[C@@H](Cc1ccccc1)C(N)=O [194.2 (Phoenix)] | 39.8 | 0.0132 | – | – | – |
| CC(C)C[C@H](NC(=O)[C@H](CCCNC(=N)N)NC(=O)[C@H](CC(=O)O)NC(=O)[C@H](CC(C)C)NC(=O)[C@@H]1CCCN1C(=O)[C@H](CO)NC(=O)CNC(=O)[C@H](Cc1ccccc1)NC(=O)CNC(=O)[C@H](CO)NC(=O)[C@H](Cc1ccccc1)NC(=O)[C@@H](N)CO)C(=O)N[C@@H](CO)C(=O)N[C@@H](C)C(=O)NCC(=O)N[C@@H](CO)C(=O)N[C@H](C(=O)N[C@@H](CC(=O)O)C(=O)N[C@@H](Cc1c[nH]cn1)C(=O)N[C@@H](CCCCN)C(N)=O)C(C)C [Peptide 141.1] (H-SFSGFGSPLDRLSAGSVDHK-NH2) | 14500 | 14100 | – | – | – |
| CC(C)C[C@H](NC(=O)[C@H](CCCNC(=N)N)NC(=O)[C@H](CC(=O)O)NC(=O)[C@H](CC(C)C)NC(=O)[C@@H]1CCCN1C(=O)[C@H](CO)NC(=O)CNC(=O)[C@H](Cc1ccccc1)NC(=O)CNC(=O)[C@H](CO)NC(=O)[C@H](Cc1ccccc1)NC(=O)[C@H](CO)NC(=O)[C@H](CCCNC(=N)N)NC(=O)[C@@H](N)CCCCN)C(=O)N[C@@H](CO)C(=O)N[C@@H](C)C(=O)NCC(=O)N[C@@H](CO)C(=O)N[C@H](C(=O)N[C@@H](CC(=O)O)C(=O)N[C@@H](Cc1c[nH]cn1)C(=O)N[C@@H](CCCCN)C(=O)NCC(=O)N[C@@H](CCCCN)C(=O)N[C@@H](CCC(N)=O)C(=O)O)C(C)C [Peptide 141.2] (H-KRSFSGFGSPLDRLSAGSVDHKGKQ-OH) | 2630 | 1170 | – | – | – |
| CC(C)C[C@H](NC(=O)[C@H](CCCNC(=N)N)NC(=O)[C@H](CC(=O)O)NC(=O)[C@H](CC(C)C)NC(=O)[C@@H]1CCCN1C(=O)[C@H](CO)NC(=O)CNC(=O)[C@H](Cc1ccccc1)NC(=O)CNC(=O)[C@H](CO)NC(=O)[C@H](Cc1ccccc1)NC(=O)[C@H](CO)NC(=O)[C@H](CCCNC(=N)N)NC(=O)[C@@H](N)CCCCN)C(=O)N[C@@H](CO)C(=O)N[C@@H](C)C(=O)NCC(=O)N[C@@H](CO)C(=O)N[C@H](C(=O)N[C@@H](CC(=O)O)C(=O)N[C@@H](Cc1c[nH]cn1)C(=O)N[C@@H](CCCCN)C(=O)NCC(=O)N[C@@H](CCCCN)C(=O)N[C@@H](CCC(N)=O)C(=O)N[C@@H](CCCNC(=N)N)C(=O)N[C@@H](CCCCN)C(=O)N[C@H](C(=O)N[C@H](C(=O)N[C@@H](CC(=O)O)C(=O)N[C@@H](Cc1c[nH]cn1)C(=O)N1CCC[C@H]1C(=O)O)C(C)C)C(C)C)C(C)C [Peptide 141.3] (H-KRSFSGFGSPLDRLSAGSVDHKGKQRKVVDHP-OH) | 2630 | 550 | – | – | – |
| CC(C)C[C@H](NC(=O)[C@H](CCCNC(=N)N)NC(=O)[C@H](CC(=O)O)NC(=O)[C@H](CC(C)C)NC(=O)[C@@H]1CCCN1C(=O)[C@H](CO)NC(=O)CNC(=O)[C@H](Cc1ccccc1)NC(=O)CNC(=O)[C@H](CO)NC(=O)[C@H](Cc1ccccc1)NC(=O)[C@@H](N)CO)C(=O)N[C@@H](CO)C(=O)N[C@@H](C)C(=O)NCC(=O)N[C@@H](CO)C(=O)N[C@H](C(=O)N[C@@H](CC(=O)O)C(=O)N[C@@H](Cc1c[nH]cn1)C(=O)N[C@@H](CCCCN)C(=O)NCC(=O)N[C@@H](CCCCN)C(=O)N[C@@H](CCC(N)=O)C(=O)O)C(C)C [Peptide 141.5] (H-SFSGFGSPLDRLSAGSVDHKGKQ-OH) | 16200 | 20900 | 13.6 | 6.2 | – |
| CC(C)C[C@H](NC(=O)[C@H](CCCNC(=N)N)NC(=O)[C@H](CC(=O)O)NC(=O)[C@H](CC(C)C)NC(=O)[C@@H]1CCCN1C(=O)[C@H](CO)NC(=O)CNC(=O)[C@H](Cc1ccccc1)NC(=O)CNC(=O)[C@H](CO)NC(=O)[C@H](Cc1ccccc1)NC(=O)[C@@H](N)CO)C(=O)N[C@@H](CO)C(=O)N[C@@H](C)C(=O)NCC(=O)N[C@@H](CO)C(=O)N[C@H](C(=O)N[C@@H](CC(=O)O)C(=O)N[C@@H](Cc1c[nH]cn1)C(=O)N[C@@H](CCCCN)C(=O)NCC(=O)N[C@@H](CCCCN)C(=O)N[C@@H](CCC(N)=O)C(=O)N[C@@H](CCCNC(=N)N)C(=O)N[C@@H](CCCCN)C(=O)N[C@H](C(=O)N[C@H](C(=O)N[C@@H](CC(=O)O)C(=O)N[C@@H](Cc1c[nH]cn1)C(=O)N1CCC[C@H]1C(=O)O)C(C)C)C(C)C)C(C)C [Peptide 141.6] (H-SFSGFGSPLDRLSAGSVDHKGKQRKVVDHP-OH) | 16600 | 3160 | – | – | – |
| CSCC[C@H](NC(=O)[C@H](Cc1ccc(O)cc1)NC(=O)[C@@H](N)CC(=O)O)C(=O)NCC(=O)N[C@@H](Cc1c[nH]c2ccccc12)C(=O)N[C@@H](CCSC)C(=O)N[C@@H](CC(=O)O)C(=O)N[C@@H](Cc1ccccc1)C(N)=O [Peptide 194.1] | 8510 | 1.45 | – | – | – |
| C[C@H](NC(=O)[C@@H](N)CCCCN)C(=O)N1CCC[C@H]1C(=O)N[C@@H](CO)C(N)=O [Peptide 194.3] (H-KAPS-NH2) | 0.00191 | 0.049 | – | – | – |
| YVMGHFRWDRF [Peptide 74] | – | – | – | – | MC4R |
